According to PubChem BioAssay AID1259407 (Chemical Carcinogenesis Research Information System (CCRIS), 2018):
Active and inactive are the calls of the source. How the calls were made is not given here.

System: CCRIS mutagenicity, Ames/micronucleus/aberration tests
Experiment: CCRIS mutagenicity studies
[1] = Test System: AMES SALMONELLA TYPHIMURIUM, Strain/Indicator: TA98, Metabolic Activation: NONE, Method: STANDARD PLATE
[2] = Test System: AMES SALMONELLA TYPHIMURIUM, Strain/Indicator: TA98, Metabolic Activation: RAT, LIVER, S-9, AROCLOR 1254, Method: STANDARD PLATE

Structure (SMILES): CC(C)C1=CC2=CC[C@@H]3[C@](C)(CCC[C@@]3(C)C(=O)O)[C@H]2CC1
- mutagenic call (Test System: AMES SALMONELLA TYPHIMURIUM, Strain/Indicator: TA98, Metabolic Activation: HAMSTER, LIVER, S-9, AROCLOR 1254, Method: STANDARD PLATE): inactive; negative
- mutagenic call [1]: inactive; negative
- mutagenic call [2]: inactive; negative
- mutagenic call (Test System: AMES SALMONELLA TYPHIMURIUM, Strain/Indicator: TA100, Metabolic Activation: HAMSTER, LIVER, S-9, AROCLOR 1254, Method: STANDARD PLATE): inactive; negative
- mutagenic call (Test System: AMES SALMONELLA TYPHIMURIUM, Strain/Indicator: TA100, Metabolic Activation: NONE, Method: STANDARD PLATE): inactive; negative
- mutagenic call (Test System: AMES SALMONELLA TYPHIMURIUM, Strain/Indicator: TA100, Metabolic Activation: RAT, LIVER, S-9, AROCLOR 1254, Method: STANDARD PLATE): inactive; negative
- mutagenic call (Test System: AMES SALMONELLA TYPHIMURIUM, Strain/Indicator: TA1535, Metabolic Activation: HAMSTER, LIVER, S-9, AROCLOR 1254, Method: STANDARD PLATE): inactive; negative
- mutagenic call (Test System: AMES SALMONELLA TYPHIMURIUM, Strain/Indicator: TA1535, Metabolic Activation: NONE, Method: STANDARD PLATE): inactive; negative
- mutagenic call (Test System: AMES SALMONELLA TYPHIMURIUM, Strain/Indicator: TA1535, Metabolic Activation: RAT, LIVER, S-9, AROCLOR 1254, Method: STANDARD PLATE): inactive; negative
- mutagenic call (Test System: AMES SALMONELLA TYPHIMURIUM, Strain/Indicator: TA1537, Metabolic Activation: HAMSTER, LIVER, S-9, AROCLOR 1254, Method: STANDARD PLATE): inactive; negative
- mutagenic call (Test System: AMES SALMONELLA TYPHIMURIUM, Strain/Indicator: TA1537, Metabolic Activation: NONE, Method: STANDARD PLATE): inactive; negative
- mutagenic call (Test System: AMES SALMONELLA TYPHIMURIUM, Strain/Indicator: TA1537, Metabolic Activation: RAT, LIVER, S-9, AROCLOR 1254, Method: STANDARD PLATE): inactive; negative
- mutagenic call (Test System: AMES SALMONELLA TYPHIMURIUM, Strain/Indicator: TA1538, Metabolic Activation: HAMSTER, LIVER, S-9, AROCLOR 1254, Method: STANDARD PLATE): inactive; negative
- mutagenic call (Test System: AMES SALMONELLA TYPHIMURIUM, Strain/Indicator: TA1538, Metabolic Activation: NONE, Method: STANDARD PLATE): inactive; negative
- mutagenic call (Test System: AMES SALMONELLA TYPHIMURIUM, Strain/Indicator: TA1538, Metabolic Activation: RAT, LIVER, S-9, AROCLOR 1254, Method: STANDARD PLATE): inactive; negative
- mutagenic call (Test System: MOUSE LYMPHOMA, Strain/Indicator: L5178Y (TK+/TK-), Metabolic Activation: NONE, Method: SUSPENSION/PLATE): active; positive. reevaluation of results: positive
- mutagenic call (Test System: MOUSE LYMPHOMA, Strain/Indicator: L5178Y (TK+/TK-), Metabolic Activation: RAT, LIVER, S-9, AROCLOR 1254, Method: SUSPENSION/PLATE): inactive; negative. reevaluation of results: negative

Structure (SMILES): Cc1noc(NS(=O)(=O)c2ccc(N)cc2)c1C
- mutagenic call (End Point: IN VITRO CHROMOSOMAL ABERRATIONS, Test System: CHO CELLS, Metabolic Activation: NONE): inactive; negative
- mutagenic call (End Point: IN VITRO CHROMOSOMAL ABERRATIONS, Test System: CHO CELLS, Metabolic Activation: RAT, LIVER, S-9, AROCLOR 1254): inactive; negative
- mutagenic call (Test System: AMES SALMONELLA TYPHIMURIUM, Strain/Indicator: TA97, Metabolic Activation: HAMSTER, LIVER, S-9, AROCLOR 1254 (10 OR 30%), Method: PREINCUBATION): inactive; negative
- mutagenic call (Test System: AMES SALMONELLA TYPHIMURIUM, Strain/Indicator: TA97, Metabolic Activation: NONE, Method: PREINCUBATION): inactive; negative
- mutagenic call (Test System: AMES SALMONELLA TYPHIMURIUM, Strain/Indicator: TA97, Metabolic Activation: RAT, LIVER, S-9, AROCLOR 1254 (10 OR 30%), Method: PREINCUBATION): inactive; negative
- mutagenic call (Test System: AMES SALMONELLA TYPHIMURIUM, Strain/Indicator: TA98, Metabolic Activation: HAMSTER, LIVER, S-9, AROCLOR 1254 (10 OR 30%), Method: PREINCUBATION): inactive; negative
- mutagenic call (Test System: AMES SALMONELLA TYPHIMURIUM, Strain/Indicator: TA98, Metabolic Activation: NONE, Method: PREINCUBATION): inactive; negative
- mutagenic call (Test System: AMES SALMONELLA TYPHIMURIUM, Strain/Indicator: TA98, Metabolic Activation: RAT, LIVER, S-9, AROCLOR 1254 (10 OR 30%), Method: PREINCUBATION): inactive; negative
- mutagenic call (Test System: AMES SALMONELLA TYPHIMURIUM, Strain/Indicator: TA100, Metabolic Activation: HAMSTER, LIVER, S-9, AROCLOR 1254 (10 OR 30%), Method: PREINCUBATION): inactive; negative
- mutagenic call (Test System: AMES SALMONELLA TYPHIMURIUM, Strain/Indicator: TA100, Metabolic Activation: NONE, Method: PREINCUBATION): inactive; negative
- mutagenic call (Test System: AMES SALMONELLA TYPHIMURIUM, Strain/Indicator: TA100, Metabolic Activation: RAT, LIVER, S-9, AROCLOR 1254 (10 OR 30%), Method: PREINCUBATION): inactive; negative
- mutagenic call (Test System: AMES SALMONELLA TYPHIMURIUM, Strain/Indicator: TA1535, Metabolic Activation: HAMSTER, LIVER, S-9, AROCLOR 1254 (10 OR 30%), Method: PREINCUBATION): inactive; negative
- mutagenic call (Test System: AMES SALMONELLA TYPHIMURIUM, Strain/Indicator: TA1535, Metabolic Activation: NONE, Method: PREINCUBATION): inactive; negative
- mutagenic call (Test System: AMES SALMONELLA TYPHIMURIUM, Strain/Indicator: TA1535, Metabolic Activation: RAT, LIVER, S-9, AROCLOR 1254 (10 OR 30%), Method: PREINCUBATION): inactive; negative
- mutagenic call (Test System: E. COLI, Strain/Indicator: WP2 UVRA, Metabolic Activation: HAMSTER, LIVER, S-9, AROCLOR 1254, Method: STANDARD PLATE): inactive; negative
- mutagenic call (Test System: E. COLI, Strain/Indicator: WP2 UVRA, Metabolic Activation: HAMSTER, LIVER, S-9, Method: STANDARD PLATE): inactive; negative
- mutagenic call (Test System: E. COLI, Strain/Indicator: WP2 UVRA, Metabolic Activation: MOUSE, LIVER, S-9, AROCLOR 1254, Method: STANDARD PLATE): inactive; negative
- mutagenic call (Test System: E. COLI, Strain/Indicator: WP2 UVRA, Metabolic Activation: MOUSE, LIVER, S-9, Method: STANDARD PLATE): inactive; negative
- mutagenic call (Test System: E. COLI, Strain/Indicator: WP2 UVRA, Metabolic Activation: NONE, Method: STANDARD PLATE): inactive; negative
- mutagenic call (Test System: E. COLI, Strain/Indicator: WP2 UVRA, Metabolic Activation: RAT, LIVER, S-9, AROCLOR 1254, Method: STANDARD PLATE): inactive; negative
- mutagenic call (Test System: E. COLI, Strain/Indicator: WP2 UVRA, Metabolic Activation: RAT, LIVER, S-9, Method: STANDARD PLATE): inactive; negative

Structure (SMILES): Nc1ccc(Sc2ccccc2)cc1
- mutagenic call [1]: inactive; negative
- mutagenic call [2]: active; positive
